Where “and” joins values, the source holds several entries; their conditions need not be identical. Equal values may be shown once.
Tested on: hypertriglyceridemic patients with cardiovascular disease or at high risk for cardiovascular disease
Test: REDUCE-IT: time to first occurrence of adjudicated cardiovascular endpoint events (primary, key secondary, other secondary, tertiary; sensitivity and landmark analyses)
Format: in vivo
Conditions: for New Onset Hypertension, patients with event: non-adjudicated
Source text: The following study, also referred to as the REDUCE-IT clinical trial, was a large cardiovascular (CV) outcome trial designed to assess CV risk reduction benefit of AMR101 treatment (commercially known as VASCEPA®) versus placebo on the 5-point primary composite endpoint: CV death, non-fatal stroke, non-fatal myocardial infarction (MI), coronary revascularizations, or unstable angina requiring hospitalization.
A multi-center, prospective, randomized, double-blind, placebo-controlled, parallel-group study was performed to evaluate the effect of AMR101 (4 g per day) on cardiovascular health and mortality in hypertriglyceridemic patients with cardiovascular disease or at high risk for cardiovascular disease. The intended expanded indication of the study was treatment with AMR101 as an add-on to statin therapy to reduce the risk of cardiovascular events in patients with clinical cardiovascular disease or with multiple risk factors for cardiovascular disease.
The primary objective of this study was, in patients at LDL-C goal while on statin therapy, with established cardiovascular disease (CVD) or at high risk for CVD, and hypertriglyceridemia (e.g., fasting triglycerides (TG) ≥200 mg/dL and <500 mg/dL), to evaluate the effect of AMR101 4 g daily on time from randomization to first occurrence of any component of the composite of the following major CV events: CV death; nonfatal MI; (including silent MI; electrocardiograms (ECGs) were performed annually for the detection of silent MIs); nonfatal stroke; coronary revascularization; and unstable angina determined to be caused by myocardial ischemia by invasive/non-invasive testing and requiring emergent hospitalization.
The key secondary objective of this study was to evaluate the effect of AMR101 4 g daily on the time from randomization to the first occurrence of the composite of following major CV events: CV death, nonfatal MI (including silent MI), and nonfatal stroke.
Other secondary objectives for this study were to evaluate the effect of therapy on time from randomization to the first occurrence of the following individual or composite endpoints: composite of CV death or nonfatal MI (including silent MI); fatal or nonfatal MI (including silent MI); non-elective coronary revascularization represented as the composite of emergent or urgent classifications; CV death; unstable angina determined to be caused by myocardial ischemia by invasive/non-invasive testing and requiring emergent hospitalization; fatal or nonfatal stroke; composite of total mortality, nonfatal MI (including silent MI), or nonfatal stroke; and total mortality.
The key tertiary objectives for this study were to evaluate the effect of AMR101 4 g daily from baseline and percent change from baseline in fasting triglycerides and LDL-C. […]

[1] = ITT population, 4 g daily, N = 4089
[2] = ITT population, listed as Icosapent Ethyl

CC/C=C\C/C=C\C/C=C\C/C=C\C/C=C\CCCC(=O)OCC [AMR101, eicosapentaenoic acid ethyl ester]
Key secondary endpoint, HR (2-year landmark, ITT population): 0.831 | Fatal or nonfatal MI, relative risk reduction (4 g per day): 31% | Fatal or nonfatal stroke, relative risk reduction (4 g per day): 28% | Hospitalization for unstable angina, relative risk reduction (4 g per day): 32% | Total mortality, nonfatal MI, or nonfatal stroke, relative risk reduction (4 g per day): 23% | Total mortality, relative risk reduction (4 g per day): 13% | Urgent or emergent revascularization, relative risk reduction (4 g per day): 35% | Non-CV deaths, patients (CEC-adjudicated): 2.4% | Total mortality, patients (CEC-adjudicated deaths): 6.7% | Component contributing to key secondary endpoint (first event): CV Death (ITT population): 149 (3.6) n (%) | Component contributing to key secondary endpoint (first event): Nonfatal MI (ITT population): 230 (5.6) n (%) | Component contributing to key secondary endpoint (first event): Nonfatal Stroke (ITT population): 80 (2.0) n (%) | Component contributing to primary endpoint (first event): CV Death (ITT population): 137 (3.4) n (%) | Component contributing to primary endpoint (first event): Coronary Revascularization (ITT population): 189 (4.6) n (%) | Component contributing to primary endpoint (first event): Hospitalization for Unstable Angina (ITT population): 94 (2.3) n (%) | Component contributing to primary endpoint (first event): Nonfatal MI (ITT population): 205 (5.0) n (%) | Component contributing to primary endpoint (first event): Nonfatal Stroke (ITT population): 80 (2.0) n (%) | Composite: CV Death, Nonfatal MI, Non-Elective Coronary Revascularization, Unstable Angina, Nonfatal Stroke, or PVD Requiring Intervention (ITT population): 683 (16.7) n (%) | Composite: CV Death, Nonfatal MI, Non-Elective Coronary Revascularization, Unstable Angina, Nonfatal Stroke, or PVD Requiring Intervention, HR (95% CI) (ITT population): 0.77 (0.70-0.86) | Composite: CV Death, Nonfatal MI, Non-Elective Coronary Revascularization, Unstable Angina, PVD Requiring Intervention, or Cardiac Arrhythmia (ITT population): 741 (18.1) n (%) | Composite: CV Death, Nonfatal MI, Non-Elective Coronary Revascularization, Unstable Angina, PVD Requiring Intervention, or Cardiac Arrhythmia, HR (95% CI) (ITT population): 0.86 (0.78-0.94) | Composite: CV Death, Nonfatal MI, Non-Elective Coronary Revascularization, or Unstable Angina (ITT population): 513 (12.5) n (%) | Composite: CV Death, Nonfatal MI, Non-Elective Coronary Revascularization, or Unstable Angina, HR (95% CI) (ITT population): 0.76 (0.68-0.85) | Composite: CV Death, Nonfatal MI, Nonfatal Stroke, Cardiac Arrhythmia, or Cardiac Arrest (ITT population): 589 (14.4) n (%) | Composite: CV Death, Nonfatal MI, Nonfatal Stroke, Cardiac Arrhythmia, or Cardiac Arrest, HR (95% CI) (ITT population): 0.82 (0.73-0.91) | Coronary Revascularization (all), HR (95% CI) (ITT population): 0.66 | Coronary Revascularization (all), patients with event (ITT population): 9.2% | Fatal or nonfatal MI (including silent MI), patients with event (ITT population): 6.1% | Fatal or nonfatal MI, HR (ITT population): 0.688 | Fatal or nonfatal stroke, HR (ITT population): 0.720 | Fatal or nonfatal stroke, patients with event (ITT population): 2.4% | Hospitalization for unstable angina, HR (ITT population): 0.679 | Hospitalization for unstable angina, patients with event (ITT population): 2.6% | Key secondary endpoint in patients with impaired glucose metabolism at baseline, HR (ITT population): 0.829 | Key secondary endpoint in patients with impaired glucose metabolism at baseline, patients with event (ITT population): 11.3% | New Heart Failure (newly emergent CHF), HR (95% CI) (ITT population): 0.95 | New Heart Failure (newly emergent CHF), patients with event (ITT population): 4.1% | New Onset Hypertension, HR (95% CI) (ITT population): 0.86 | Non-elective (emergent or urgent) coronary revascularization, HR (ITT population): 0.653 | Peripheral Artery Disease, HR (95% CI) (ITT population): 0.97 | Peripheral Artery Disease, patients with event (ITT population): 3.8% | Primary endpoint in patients with diabetes at baseline, HR (95% CI) (ITT population): 0.769 (0.677-0.873) | Primary endpoint in patients with diabetes at baseline, patients with event (ITT population): (18.1%) | Primary endpoint in patients with impaired glucose metabolism at baseline, HR (95% CI) (ITT population): 0.795 (0.675-0.937) | Primary endpoint in patients with metabolic syndrome at baseline, HR (95% CI) (ITT population): 0.744 (0.671-0.824) | Silent MI, patients with event (ITT population): 0.7% | Sudden Cardiac Death, HR (95% CI) (ITT population): 0.69 | Total Mortality or Newly Emergent CHF (ITT population): 393 (9.6) n (%) | Total Mortality or Newly Emergent CHF, HR (95% CI) (ITT population): 0.90 (0.78-1.03) | Total mortality, HR (ITT population): 0.87 | Total mortality, nonfatal MI, or nonfatal stroke, HR (ITT population): 0.772 | Key secondary composite endpoint (CV death, nonfatal MI, nonfatal stroke), patients with event [1]: 459 (11.2%) n (%) and 459 (11.2) n (%) | Primary composite endpoint (CV death, nonfatal MI, nonfatal stroke, coronary revascularization, hospitalization for unstable angina), patients with event [1]: 705 (17.2%) n (%) and 705 (17.2) n (%) | New Onset Hypertension, patients with event (ITT population): 0.3% | New Onset Hypertension, patients with event [2]: (0.3) % | Amputation for PVD, patients with event [2]: (0.5%) | Cardiac Arrest, HR (95% CI) [2]: 0.52 (0.31, 0.86) | Cardiac Arrest, patients with event [2]: (0.5%) | Coronary Revascularization (all), HR (95% CI) [2]: 0.66 (0.58, 0.76) | Coronary Revascularization (all), patients with event [2]: (9.2%) | Elective Revascularization, HR (95% CI) [2]: 0.68 (0.57, 0.82) | Elective Revascularization, patients with event [2]: (4.7%) | Emergent Revascularization, HR (95% CI) [2]: 0.62 (0.42, 0.92) | Emergent Revascularization, patients with event [2]: (1.0%) | Ischemic Stroke, HR (95% CI) [2]: 0.64 (0.49, 0.85) | Ischemic Stroke, patients with event [2]: (2.0%)
